Laboratory results as given in PubChem BioAssay (NCI).
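Following 48 hours of exposure in 96-well plates, responses at five concentrations were used to interpolate endpoints linearly. GI50 = concentration required for 50% inhibition of growth. TGI: concentration producing complete growth inhibition.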

Key:
Experiment in all cases: NCI-60 cell line screen, 48 h
[1] = tested on: NCI-H23 lung
[2] = tested on: HCT-116 colon
[3] = tested on: HOP-92 NSCLC
[4] = tested on: SN12C renal
[5] = tested on: A549 NSCLC
[6] = tested on: SK-OV-3 ovarian
[7] = tested on: NCI/ADR-RES ovarian
[8] = tested on: SK-MEL-2 melanoma
[9] = tested on: OVCAR-3 ovarian
[10] = tested on: NCI-H226 lung
[11] = tested on: MOLT-4 leukemia
[12] = tested on: UACC-62 melanoma
[13] = tested on: NCI-H522 lung
[14] = tested on: NCI-H460 lung
[15] = tested on: SK-MEL-28 melanoma
[16] = tested on: 786-0 renal
[17] = tested on: T-47D breast
[18] = tested on: U251 CNS
[19] = tested on: K-562 leukemia
[20] = tested on: SK-MEL-5 melanoma
[21] = tested on: MCF7 breast
[22] = tested on: SF-295 CNS
[23] = tested on: CCRF-CEM leukemia
[24] = tested on: MDA-MB-231 breast
[25] = tested on: DU-145 prostate
[26] = tested on: COLO 205 colon
[27] = tested on: OVCAR-8 ovarian
[28] = tested on: SR leukemia
[29] = tested on: SNB-19 CNS
[30] = tested on: SNB-75 CNS
[31] = tested on: SW-620 colon
[32] = tested on: CAKI-1 renal
[33] = tested on: MDA-MB-435
[34] = tested on: MALME-3M melanoma
[35] = tested on: HCC-2998 colon
[36] = tested on: OVCAR-4 ovarian
[37] = tested on: SF-268 CNS
[38] = tested on: TK-10 renal
[39] = tested on: RPMI-8226 leukemia
[40] = tested on: HT29 colon
[41] = tested on: IGROV1 ovarian
[42] = tested on: A498 renal
[43] = tested on: BT-549 breast
[44] = tested on: PC-3 prostate
[45] = tested on: UACC-257 melanoma
[46] = tested on: HS 578T breast
[47] = tested on: HL-60(TB) leukemia
[48] = tested on: KM12 colon
[49] = tested on: EKVX NSCLC
[50] = tested on: HCT-15 colon
[51] = tested on: UO-31 renal
[52] = tested on: LOX IMVI melanoma
[53] = tested on: HOP-62 NSCLC
[54] = tested on: M14 melanoma
[55] = tested on: RXF 393 renal
[56] = tested on: ACHN renal
[57] = tested on: OVCAR-5 ovarian
[58] = tested on: SF-539 CNS

## Nc1nc2c(c3ncccc13)C(c1cccc(Br)c1)Cc1ncccc1-2 (stereo unspecified)
[1]
  GI50: 4.52 µM
  TGI: 33 µM
[2]
  GI50: 0.442 µM
  TGI: 11.4 µM
[3]
  GI50: 0.95 µM
  TGI: 15.5 µM
[4]
  GI50: 3.51 µM
  TGI: 33.8 µM
[5]
  GI50: 1.88 µM
  TGI: 39.2 µM
[6]
  GI50: 0.74 µM
  TGI: 17.4 µM
[7]
  GI50: 0.408 µM
  TGI: 15.1 µM
[8]
  GI50: 0.871 µM
  TGI: 29.6 µM
[9]
  GI50: 0.28 µM
  TGI: 0.858 µM
[10]
  GI50: 18.8 µM
  TGI: 67.4 µM
[11]
  GI50: 0.705 µM
  TGI: 31.8 µM
[12]
  GI50: 0.436 µM
  TGI: 17.4 µM
[13]
  GI50: 0.503 µM
  TGI: 11.6 µM
[14]
  GI50: 0.492 µM
  TGI: 11 µM
[15]
  GI50: 2.74 µM
  TGI: 22.6 µM
[16]
  GI50: 1.36 µM
  TGI: 12 µM
[17]
  GI50: 0.524 µM
  TGI: 38.7 µM
[18]
  GI50: 0.625 µM
  TGI: 12.7 µM
[19]
  GI50: 0.539 µM
  TGI: > 100 µM
[20]
  GI50: 0.576 µM
  TGI: 14.3 µM
[21]
  GI50: 0.37 µM
  TGI: 18.1 µM
[22]
  GI50: 0.828 µM
  TGI: 12.4 µM
[23]
  GI50: 0.726 µM
  TGI: 38.6 µM
[24]
  GI50: 1.65 µM
  TGI: 18 µM
[25]
  GI50: 1.13 µM
  TGI: 13.7 µM
[26]
  GI50: 0.665 µM
  TGI: 3.81 µM
[27]
  GI50: 5.24 µM
  TGI: 58 µM
[28]
  GI50: 0.377 µM
  TGI: 32.7 µM
[29]
  GI50: 11.5 µM
  TGI: 25 µM
[30]
  GI50: 0.3 µM
  TGI: 13.4 µM
[31]
  GI50: 0.479 µM
  TGI: 21.8 µM
[32]
  GI50: 0.749 µM
  TGI: 50.4 µM
[33]
  GI50: 0.256 µM
  TGI: 0.761 µM
[34]
  GI50: 11.5 µM
  TGI: 31.4 µM
[35]
  GI50: 2.83 µM
  TGI: 13.7 µM
[36]
  GI50: 7.13 µM
  TGI: 41 µM
[37]
  GI50: 0.808 µM
  TGI: 20.1 µM
[38]
  GI50: 7.94 µM
  TGI: 56.2 µM
[39]
  GI50: 5.43 µM
  TGI: 48.7 µM
[40]
  GI50: 0.422 µM
  TGI: 11.4 µM
[41]
  GI50: 2.64 µM
  TGI: 34.3 µM
[42]
  GI50: 0.304 µM
  TGI: 1.6 µM
[43]
  GI50: 0.681 µM
  TGI: 6.16 µM
[44]
  GI50: 0.791 µM
  TGI: 18.5 µM
[45]
  GI50: 18.2 µM
  TGI: 54.7 µM
[46]
  GI50: 2.9 µM
  TGI: 23.5 µM
[47]
  GI50: 0.291 µM
  TGI: 7.86 µM
[48]
  GI50: 0.433 µM
  TGI: 13.1 µM
[49]
  GI50: 3.07 µM
  TGI: 80.8 µM
[50]
  GI50: 0.504 µM
  TGI: 15.1 µM
[51]
  GI50: 2.6 µM
  TGI: 24.2 µM
[52]
  GI50: 0.647 µM
  TGI: 15.9 µM
[53]
  GI50: 0.88 µM
  TGI: 21.5 µM
[54]
  GI50: 0.509 µM
  TGI: 12.6 µM
[55]
  GI50: 0.765 µM
  TGI: 4.06 µM
[56]
  GI50: 1.84 µM
  TGI: 34.8 µM
[57]
  GI50: 7.84 µM
  TGI: 31.1 µM

## Nc1nc(/C=C\c2ccc([N+](=O)[O-])cc2)nc(N2CCN(c3ccccc3)CC2)n1
[2]
  GI50: 24.8 µM
  TGI: > 100 µM
[3]
  GI50: 44.2 µM
  TGI: > 100 µM
[4]
  GI50: 42.3 µM
  TGI: > 100 µM
[5]
  GI50: 38.2 µM
  TGI: > 100 µM
[6]
  GI50: 28.7 µM
  TGI: 77 µM
[7]
  GI50: 25.3 µM
  TGI: 77.3 µM
[8]
  GI50: 30.2 µM
  TGI: 81.3 µM
[9]
  GI50: 26.9 µM
  TGI: 69.6 µM
[10]
  GI50: 40.8 µM
  TGI: > 100 µM
[11]
  GI50: 27.4 µM
  TGI: > 100 µM
[12]
  GI50: 18.9 µM
  TGI: 43.6 µM
[13]
  GI50: 18.4 µM
  TGI: 50.5 µM
[14]
  GI50: 35.5 µM
  TGI: > 100 µM
[15]
  GI50: 41.7 µM
  TGI: > 100 µM
[16]
  GI50: 45.8 µM
  TGI: > 100 µM
[17]
  GI50: 23.1 µM
  TGI: 61 µM
[18]
  GI50: 38.2 µM
  TGI: > 100 µM
[19]
  GI50: 26.5 µM
  TGI: 79.6 µM
[20]
  GI50: 18.2 µM
  TGI: 33.1 µM
[21]
  GI50: 34.2 µM
  TGI: > 100 µM
[22]
  GI50: 38.4 µM
  TGI: > 100 µM
[23]
  GI50: 23.2 µM
  TGI: 74.6 µM
[24]
  GI50: 20.8 µM
  TGI: 58.1 µM
[25]
  GI50: 40 µM
  TGI: > 100 µM
[26]
  GI50: 19 µM
  TGI: 55.2 µM
[27]
  GI50: 29.7 µM
  TGI: > 100 µM
[28]
  GI50: 21.3 µM
  TGI: 60.2 µM
[29]
  GI50: > 100 µM
  TGI: > 100 µM
[30]
  GI50: 39.8 µM
  TGI: > 100 µM
[31]
  GI50: 40.4 µM
  TGI: > 100 µM
[32]
  GI50: 22.5 µM
  TGI: 45.8 µM
[33]
  GI50: 20.5 µM
  TGI: 41.7 µM
[35]
  GI50: 41 µM
  TGI: 96.2 µM
[36]
  GI50: 53.3 µM
  TGI: > 100 µM
[37]
  GI50: 96.7 µM
  TGI: > 100 µM
[38]
  GI50: 20.5 µM
  TGI: 65 µM
[39]
  GI50: 22.9 µM
  TGI: > 100 µM
[40]
  GI50: 35.3 µM
  TGI: > 100 µM
[41]
  GI50: 20.1 µM
  TGI: 54.1 µM
[42]
  GI50: 37.6 µM
  TGI: > 100 µM
[43]
  GI50: 35.7 µM
  TGI: > 100 µM
[44]
  GI50: 23.7 µM
  TGI: 67.6 µM
[45]
  GI50: 25.1 µM
  TGI: 61.5 µM
[46]
  GI50: 80 µM
  TGI: > 100 µM
[47]
  GI50: 20 µM
  TGI: 58.9 µM
[48]
  GI50: 20.7 µM
  TGI: 53.8 µM
[49]
  GI50: 43.4 µM
  TGI: > 100 µM
[50]
  GI50: 25.3 µM
  TGI: > 100 µM
[51]
  GI50: 27.7 µM
  TGI: > 100 µM
[52]
  GI50: 30.2 µM
  TGI: > 100 µM
[53]
  GI50: 36.2 µM
  TGI: > 100 µM
[54]
  GI50: 25.6 µM
  TGI: 62.9 µM
[55]
  GI50: 29.3 µM
  TGI: 93 µM
[58]
  GI50: > 100 µM
  TGI: > 100 µM
[56]
  GI50: 30.2 µM
  TGI: > 100 µM
[57]
  GI50: 89 µM
  TGI: > 100 µM

## O=C(O)/C(=C/C(=O)c1ccc(Cl)cc1)NNc1ccc([N+](=O)[O-])cc1[N+](=O)[O-]
[1]
  TGI: > 100 µM
[2]
  TGI: 36.3 µM
[3]
  TGI: 57.1 µM
[4]
  TGI: > 100 µM
[5]
  TGI: > 100 µM
[6]
  TGI: > 100 µM
[7]
  TGI: > 100 µM
[8]
  TGI: > 100 µM
[9]
  TGI: 94.8 µM
[10]
  TGI: 69.3 µM
[11]
  TGI: > 100 µM
[12]
  TGI: > 100 µM
[13]
  TGI: 46 µM
[14]
  TGI: > 100 µM
[15]
  TGI: > 100 µM
[16]
  TGI: 53.4 µM
[17]
  TGI: > 100 µM
[18]
  TGI: > 100 µM
[19]
  TGI: > 100 µM
[20]
  TGI: > 100 µM
[21]
  TGI: > 100 µM
[22]
  TGI: > 100 µM
[23]
  TGI: 70 µM
[24]
  TGI: > 100 µM
[25]
  TGI: > 100 µM
[26]
  TGI: > 100 µM
[27]
  TGI: > 100 µM
[28]
  TGI: > 100 µM
[29]
  TGI: > 100 µM
[32]
  TGI: 46 µM
[33]
  TGI: > 100 µM
[34]
  TGI: > 100 µM
[35]
  TGI: > 100 µM
[36]
  TGI: 42 µM
[37]
  TGI: > 100 µM
[38]
  TGI: > 100 µM
[39]
  TGI: 96.9 µM
[40]
  TGI: > 100 µM
[41]
  TGI: > 100 µM
[42]
  TGI: > 100 µM
[43]
  TGI: 92.5 µM
[44]
  TGI: > 100 µM
[45]
  TGI: > 100 µM
[46]
  TGI: 94.4 µM
[47]
  TGI: > 100 µM
[48]
  TGI: > 100 µM
[49]
  TGI: > 100 µM
[50]
  TGI: > 100 µM
[51]
  TGI: 44.2 µM
[52]
  TGI: > 100 µM
[53]
  TGI: 70 µM
[54]
  TGI: > 100 µM
[58]
  TGI: > 100 µM
[56]
  TGI: > 100 µM
[57]
  TGI: > 100 µM
